This is an account of results in ChEMBL document CHEMBL1145135, “Structure-activity relationships of the p38alpha MAP kinase inhibitor 1-(5-tert-butyl-2-p-tolyl-2H-pyrazol-3-yl)-3-[4-(2-morpholin-4-yl-ethoxy)naph- thalen-1-yl]urea (BIRB 796)” (J Med Chem, 2003).

Chain of Mitogen-activated protein kinase 14 (Mus musculus) (P47811 whole entry): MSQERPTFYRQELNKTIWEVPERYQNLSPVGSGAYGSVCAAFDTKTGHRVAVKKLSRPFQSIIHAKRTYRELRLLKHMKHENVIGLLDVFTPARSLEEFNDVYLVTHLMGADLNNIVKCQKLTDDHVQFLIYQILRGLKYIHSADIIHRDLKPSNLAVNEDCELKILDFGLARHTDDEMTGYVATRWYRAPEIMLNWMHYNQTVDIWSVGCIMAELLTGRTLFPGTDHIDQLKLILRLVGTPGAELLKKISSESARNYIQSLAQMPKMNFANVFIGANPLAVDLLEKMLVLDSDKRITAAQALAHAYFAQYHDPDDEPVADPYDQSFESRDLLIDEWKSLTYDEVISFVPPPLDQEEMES
Chain of Mitogen-activated protein kinase 14 (P47811 whole entry): as above

One assay addresses Mitogen-activated protein kinase 14 (Mus musculus) (UniProt P47811).
Description: Thermal denaturation temperature (Tm) of the inhibitor and murine pMitogen-activated protein kinase p38 alpha complex
Regarding `CC(=O)Nc1ccc(-n2nc(C(C)(C)C)cc2NC(=O)Nc2ccc(OCCN3CCOCC3)c3ccccc23)cc1`, the Tm was 53.4 °C.

`CC(=O)Nc1cccc(-n2nc(C(C)(C)C)cc2NC(=O)Nc2ccc(OCCN3CCOCC3)c3ccccc23)c1`: the Tm amounted to 55.9 °C.

Turning to `CC(C)(C)c1cc(NC(=O)Nc2ccc(OCCN3CCOCC3)c3ccccc23)n(C2CCCCC2)n1`, the Tm amounted to 54.8 °C.

For the compound `Cc1ccc(-n2nc(C(C)(C)C)cc2NC(=O)Nc2ccc(OCCc3cccnc3)c3ccccc23)cc1`, the Tm came to 59.8 °C.

Regarding `Cc1ccc(-n2nc(C(C)(C)CO)cc2NC(=O)Nc2ccc(OCCN3CCOCC3)c3ccccc23)cc1`, the Tm stood at 53 °C.

With `CCOc1ccc(NC(=O)Nc2cc(C(C)(C)C)nn2-c2ccc(C)cc2)c2ccccc12`, the Tm stood at 55.5 °C.

`O=C(Nc1ccc(OCCN2CCOCC2)c2ccccc12)Nc1ccnn1-c1ccccc1`: the Tm was 49.1 °C.

For the compound `Cc1ccc(-n2nc(C(C)(C)C)cc2NC(=O)Nc2ccc(OCCN3CCSCC3)c3ccccc23)cc1`, the Tm amounted to 56.6 °C.

As to `Cc1ccc(-n2nc(C(C)(C)C)cc2NC(=O)Nc2ccc(OCCN3CCNCC3)c3ccccc23)cc1`, the Tm is 55.6 °C.

Regarding `CC(C)c1cc(NC(=O)Nc2ccc(OCCN3CCOCC3)c3ccccc23)n(-c2ccccc2)n1`, the Tm came to 56.6 °C.

For `Cn1nc(C(C)(C)C)cc1NC(=O)Nc1ccc(OCCN2CCOCC2)c2ccccc12`, the Tm worked out at 54.5 °C.

Turning to `Cc1ccc(-n2nc(C(C)(C)C)cc2NC(=O)Nc2ccc(OCCN3C[C@@H](C)O[C@@H](C)C3)c3ccccc23)cc1`, the Tm was 58.4 °C.

On to `CC(C)(C)c1cc(NC(=O)Nc2ccc(OCCN3CCOCC3)c3ccccc23)n(Cc2ccccc2)n1`, for which the Tm was 53.4 °C.

Another assay addresses Mitogen-activated protein kinase 14 (Mus musculus, UniProt P47811). Put plainly: Kd value and murine Mitogen-activated protein kinase p38 alpha complex was calculated.
For the compound `CC(=O)Nc1ccc(-n2nc(C(C)(C)C)cc2NC(=O)Nc2ccc(OCCN3CCOCC3)c3ccccc23)cc1`, the equilibrium dissociation constant (Kd) is 64 nM.

Turning to `CC(=O)Nc1cccc(-n2nc(C(C)(C)C)cc2NC(=O)Nc2ccc(OCCN3CCOCC3)c3ccccc23)c1`, the Kd was 9.9 nM.

Turning to `CC(C)(C)c1cc(NC(=O)Nc2ccc(OCCN3CCOCC3)c3ccccc23)n(C2CCCCC2)n1`, the dissociation constant (Kd) is 23 nM.

As to `Cc1ccc(-n2nc(C(C)(C)C)cc2NC(=O)Nc2ccc(OCCc3cccnc3)c3ccccc23)cc1`, the dissociation constant (Kd) was 0.52 nM.

For the compound `Cc1ccc(-n2nc(C(C)(C)CO)cc2NC(=O)Nc2ccc(OCCN3CCOCC3)c3ccccc23)cc1`, the Kd was 56 nM.

In the case of `CCOc1ccc(NC(=O)Nc2cc(C(C)(C)C)nn2-c2ccc(C)cc2)c2ccccc12`, the Kd is 11 nM.

As for `O=C(Nc1ccc(OCCN2CCOCC2)c2ccccc12)Nc1ccnn1-c1ccccc1`, the Kd is 2400 nM.

Take `Cc1ccc(-n2nc(C(C)(C)C)cc2NC(=O)Nc2ccc(OCCN3CCSCC3)c3ccccc23)cc1`: the Kd was 5.9 nM.

Consider `Cc1ccc(-n2nc(C(C)(C)C)cc2NC(=O)Nc2ccc(OCCN3CCNCC3)c3ccccc23)cc1`, for which the Kd was 12 nM.

As to `CC(C)c1cc(NC(=O)Nc2ccc(OCCN3CCOCC3)c3ccccc23)n(-c2ccccc2)n1`, the Kd is 3.4 nM.

In the case of `Cn1nc(C(C)(C)C)cc1NC(=O)Nc1ccc(OCCN2CCOCC2)c2ccccc12`, the dissociation constant (Kd) is 26 nM.

On to `Cc1ccc(-n2nc(C(C)(C)C)cc2NC(=O)Nc2ccc(OCCN3C[C@@H](C)O[C@@H](C)C3)c3ccccc23)cc1`, for which the Kd was 1.5 nM.

Turning to `CC(C)(C)c1cc(NC(=O)Nc2ccc(OCCN3CCOCC3)c3ccccc23)n(Cc2ccccc2)n1`, the Kd is 64 nM.
